Results published in patent US20050032873A1, “3-Amino chroman and 2-amino tetralin derivatives” (Wyeth, priority 2003, published 2005).
Like-named read-outs stand apart in the source and are kept apart here.

How the values were obtained:
serotonin transporter = target: T1, serotonin transporter (Rattus norvegicus, UniProt P31652); experiment: 5-HT transporter affinity: displacement of 3H-paroxetine from male rat cortical membranes; assay type: binding; details: displacement of 3H-paroxetine; male rat cortical membranes; read-out: 5-HT Transporter Affinity Ki
T1 construct: displace ^3H-paroxetine from male rat cortical membranes; from tissue; host or cells: male rat cortical membranes

5-HT1A receptor [1] = target: T2, 5-HT1A receptor (Homo sapiens, UniProt P08908); experiment: 5-HT1A receptor affinity: displacement of [3H] 8-OH-DPAT; assay type: binding; parameters: expressed in transfected cells; details: displacement of [3H] 8-OH-DPAT; CHO cells stably transfected with human 5-HT1A receptors; read-out: 5-HT1A Receptor Affinity Ki
T2 sequence (P08908 1-422): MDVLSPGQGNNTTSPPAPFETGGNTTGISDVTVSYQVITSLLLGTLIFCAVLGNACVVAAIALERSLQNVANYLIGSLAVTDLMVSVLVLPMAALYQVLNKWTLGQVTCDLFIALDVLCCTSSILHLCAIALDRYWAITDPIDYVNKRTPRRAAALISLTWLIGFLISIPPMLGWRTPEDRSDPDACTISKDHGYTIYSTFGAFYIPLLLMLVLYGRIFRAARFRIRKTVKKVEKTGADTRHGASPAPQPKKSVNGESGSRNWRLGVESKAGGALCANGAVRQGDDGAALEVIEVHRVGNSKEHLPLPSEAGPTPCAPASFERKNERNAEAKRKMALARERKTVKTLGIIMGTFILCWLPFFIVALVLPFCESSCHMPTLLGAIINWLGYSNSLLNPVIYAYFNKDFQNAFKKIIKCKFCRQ

5-HT1A receptor [2] = target: T2, 5-HT1A receptor; experiment: cAMP accumulation assay, 5-HT1A function; assay type: cell-based; details: for EC50: cells marked EC50 (agonist); for Emax: read-out: 5-HT1A Function cAMP (Emax); for IC50: cells marked IC50 (antagonist), read-out: 5-HT1A Function cAMP IC50
Text: (§1) The agonist or antagonist activity at 5-HT1A receptors was established by using two different assays. […] Agonists produce an increase in binding whereas antagonists produce no increase but rather reverse the effects of the standard agonist 8-OH-DPAT. The test compound's maximum stimulatory effect is represented as the Emax, while its potency is defined by the EC50. The test compound's maximum inhibitory effect is represented as the Imax, while its potency is defined by the IC50. The second assay measured cAMP accumulation upon binding of the ligand to the 5-HT1A receptor. […] The test compound's maximum stimulatory or inhibitory effect is represented as the Emax while its potency is defined by either IC50 for an antagonist or EC50 for an agonist. [^3H]-8-OH-DPAT was used to determine maximum agonist or antagonist response in both functional assays.

[3] = target: T3, cloned human 5-HT1A receptors (Homo sapiens, UniProt P08908); experiment: 35S-GTPγS binding assay, 5-HT1A function; assay type: biochemical; details: for EC50: agonist potency; for IC50: antagonist potency, reversal of 8-OH-DPAT, read-out: 5-HT1A Function GTPγS IC50
T3 construct: expressed in transfected cells
T3 sequence (P08908 1-422): T2 sequence (P08908 1-422)
Text: as §1

[4] = maximum stimulatory effect, in brackets after EC50, read-out: 5-HT1A Function GTPγS (Emax)
[5] = maximum inhibitory effect, in brackets after IC50, read-out: 5-HT1A Function GTPγS (Imax)

T1 sequence (P31652 whole entry): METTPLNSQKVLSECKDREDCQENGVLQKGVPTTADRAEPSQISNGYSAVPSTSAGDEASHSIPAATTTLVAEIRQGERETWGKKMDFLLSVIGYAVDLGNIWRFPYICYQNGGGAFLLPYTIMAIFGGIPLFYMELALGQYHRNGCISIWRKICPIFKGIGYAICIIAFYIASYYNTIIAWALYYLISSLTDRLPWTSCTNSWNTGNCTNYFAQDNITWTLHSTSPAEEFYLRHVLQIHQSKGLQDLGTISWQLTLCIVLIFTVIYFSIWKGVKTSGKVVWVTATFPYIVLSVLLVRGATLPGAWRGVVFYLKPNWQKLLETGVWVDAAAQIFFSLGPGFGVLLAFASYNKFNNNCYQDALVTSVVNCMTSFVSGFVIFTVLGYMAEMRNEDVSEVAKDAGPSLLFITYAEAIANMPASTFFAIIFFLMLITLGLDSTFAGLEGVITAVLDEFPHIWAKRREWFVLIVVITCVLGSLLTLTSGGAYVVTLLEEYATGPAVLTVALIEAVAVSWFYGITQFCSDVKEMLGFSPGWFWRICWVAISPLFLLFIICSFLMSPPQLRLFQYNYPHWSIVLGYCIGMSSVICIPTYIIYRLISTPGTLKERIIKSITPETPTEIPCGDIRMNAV

Compound | Ki (serotonin transporter) [nM] | Ki (5-HT1A receptor [1]) [nM] | EC50 (5-HT1A receptor [2]) [nM] | Emax (5-HT1A receptor [2]; in brackets after EC50 or IC50) [%] | EC50 [3] [nM] | Emax [3, 4] [%] | IC50 (5-HT1A receptor [2]) [nM] | IC50 [3] [nM] | Emax [3, 5] [%] | 5-HT1A Function GTPγS (Imax) ([3]; maximum inhibitory effect, in brackets after IC50) [%] | 5-HT1A Function cAMP (Emax) (5-HT1A receptor [2]; in brackets after EC50 or IC50) [%] | 5-HT1A Function GTPγS (Emax) ([3]; maximum stimulatory effect, in brackets after EC50) [%]
NC(=O)c1cccc2c1CC(N(CCCc1c[nH]c3ccc(F)cc13)CC1CC1)CO2 (stereo not drawn) [Compound 148, 3-{(cyclopropylmethyl)[3-(5-fluoro-1H-indol-3-yl)propyl]amino}chromane-5-carboxamide] | 3.25 | 0.33 | 0.54 | 100 | 8.04 | 81 | – | – | – | – | – | –
COc1cccc2c(CCCN(CC3CC3)C3COc4c(F)ccc(C(N)=O)c4C3)coc12 (stereo not drawn) [Compound 165, 3-{(cyclopropylmethyl)[3-(7-methoxy-1-benzofuran-3-yl)propyl]amino}-8-fluorochromane-5-carboxamide] | 913 | 1.06 | – | 0 | 211 | 22 | 52.3 | 116 | 91 | – | – | –
CNC(=O)c1ccc(F)c2c1CC(N(CCCc1c[nH]c3ccc(F)cc13)C1CCC1)CO2 (stereo not drawn) [Compound 59, 3-{cyclobutyl[3-(5-fluoro-1H-indol-3-yl)propyl]amino}-8-fluoro-N-methylchromane-5-carboxamide] | 5.05 | 5.35 | – | 0 | – | – | 166 | 812 | 100 | – | – | –
CCN(CCc1coc2c(OC)cccc12)C1COc2c(F)ccc(C(N)=O)c2C1 (stereo not drawn) [Compound 157, 3-{ethyl[2-(7-methoxy-1-benzofuran-3-yl)ethyl]amino}-8-fluorochromane-5-carboxamide] | 768 | 83.8 | – | 0 | 1200 | 70 | – | – | – | – | – | –
CCN(CCCc1c[nH]c2c(OC)cccc12)C1COc2c(F)ccc(C(N)=O)c2C1 (stereo not drawn) [Compound 101, 3-{ethyl[3-(7-methoxy-1H-indol-3-yl)propyl]amino}-8-fluorochromane-5-carboxamide] | 642 | 0.5 | 45.1 | 68.5 | 103 | 99 | – | – | – | – | – | –
CCCN(CCCCc1c[nH]c2ccc(F)cc12)C1COc2c(F)ccc(C(=O)NC)c2C1 (stereo not drawn) [Compound 93, 8-fluoro-3-[[4-(5-fluoro-1H-indol-3-yl)butyl](propyl)amino]-N-methylchromane-5-carboxamide] | 2.49 | 7.67 | – | 0 | – | – | 228 | 304 | 100 | – | – | –
COc1cccc2c1CC(N(CCCc1c[nH]c3ccc(F)cc13)CC1CC1)CO2 (stereo not drawn) [Compound 37, N-(cyclopropylmethyl)-N-[3-(5-fluoro-1H-indol-3-yl)propyl]-N-(5-methoxy-3,4-dihydro-2H-chromen-3-yl)amine] | 4.3 | 1.68 | 14.1 | 91 | 146 | 88 | – | – | – | – | – | –
COC(=O)c1ccc(F)c2c1C[C@@H](NCCCCc1c[nH]c3ccc(F)cc13)CO2 [Compound 57b, methyl (3R)-8-fluoro-3-{[4-(5-fluoro-1H-indol-3-yl)butyl]amino}chromane-5-carboxylate] | 12.2 | 19.4 | 180 | 93 | 641 | 100 | – | – | – | – | – | –
CCCN(C(C)CCCc1c[nH]c2ccc(F)cc12)C1COc2c(F)ccc(C(N)=O)c2C1 (single isomer, unassigned; (+)) [Compound 14a, (+)-8-fluoro-3-[[4-(5-fluoro-1H-indol-3-yl)-1-methylbutyl](propyl)amino]chromane-5-carboxamide] | 13.6 | 41.7 | – | 0 | – | – | 147 | 2210 | – | 59 | – | –
NC(=O)c1cccc2c1CC(N(CCCc1c[nH]c3ccc(F)cc13)C1CCC1)CO2 (single isomer, unassigned; (-)) [Compound 134a, (−)-3-{cyclobutyl[3-(5-fluoro-1H-indol-3-yl)propyl]amino}chromane-5-carboxamide] | 2.75 | 0.66 | 3.87 | – | 66 | – | – | 191 | 60 | – | 89 | 30
